Experimental data reported in US12679878B2, “CRF2 receptor agonists and their use in therapy” (SANOFI, priority 2020, dated 2026).
Read-outs that look alike come from different tables or passages of the source. Starred links: 1 amine or outer side, 2 acyl side, 3 side chain; linkers in the order of their positions; H or OH if unused. Non-standard residues stand in square brackets, D forms with d. Residues, ends and D or L forms follow the SMILES beside them. Groups on a side chain read outwards from the residue. *: point of attachment. C18 diacid = O=C(O)CCCCCCCCCCCCCCCCC(=O)*; γGlu = O=C(O)[C@H](CCC(=O)[*:2])N[*:1]; AEEA = NCCOCCOCC(=O)O; Aib = CC(C)(N)C(=O)O

Assays:
Format in all cases: cell-based
human CRF2α receptor = target: T1, human CRF2α receptor (Homo sapiens, UniProt Q13324); assay: cAMP agonism at human CRF2 α receptor in TeloHEAC cells (Example 7); settings: cAMP HTRF, TeloHEAC cells stably expressing human CRF2 α
T1 construct: expressed in transfected cells; host or cells: TeloHEAC
T1 sequence (Q13324 1-411): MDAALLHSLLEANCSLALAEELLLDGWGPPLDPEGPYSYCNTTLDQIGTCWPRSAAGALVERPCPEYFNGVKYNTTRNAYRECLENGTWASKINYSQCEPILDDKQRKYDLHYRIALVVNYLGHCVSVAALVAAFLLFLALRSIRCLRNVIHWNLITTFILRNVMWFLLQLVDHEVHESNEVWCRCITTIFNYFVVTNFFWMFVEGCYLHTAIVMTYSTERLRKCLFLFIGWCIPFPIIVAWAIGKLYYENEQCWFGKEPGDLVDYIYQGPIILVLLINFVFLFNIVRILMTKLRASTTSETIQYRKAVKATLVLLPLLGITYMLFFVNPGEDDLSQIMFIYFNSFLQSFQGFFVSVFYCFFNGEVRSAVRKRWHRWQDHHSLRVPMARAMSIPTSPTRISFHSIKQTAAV
How it was run: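 Cryopreserved cells are thawed, washed and resuspended in IBMX-containing (2 mM) HEPES-buffered HBSS with or without 0.1% HSA. Compound incubation runs 30 min at room temperature with 2000 cells per well, then cAMP is measured by time-resolved FRET. Potency is expressed as EC50, efficacy relative to urocortin 2 at 1000 nM.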

CRF1R receptor = target: T2, CRF1R receptor (Homo sapiens, UniProt P34998); assay: cAMP activity at anti-target CRF1R, CRF1R-overexpression CHO cell line (Example 9); settings: CRF1R-overexpression CHO cell line; for EC50: 0% HSA; for Emax: read-out: Emax (%)
T2 construct: host or cells: CHO-K1 clone 2
T2 sequence (P34998 24-415): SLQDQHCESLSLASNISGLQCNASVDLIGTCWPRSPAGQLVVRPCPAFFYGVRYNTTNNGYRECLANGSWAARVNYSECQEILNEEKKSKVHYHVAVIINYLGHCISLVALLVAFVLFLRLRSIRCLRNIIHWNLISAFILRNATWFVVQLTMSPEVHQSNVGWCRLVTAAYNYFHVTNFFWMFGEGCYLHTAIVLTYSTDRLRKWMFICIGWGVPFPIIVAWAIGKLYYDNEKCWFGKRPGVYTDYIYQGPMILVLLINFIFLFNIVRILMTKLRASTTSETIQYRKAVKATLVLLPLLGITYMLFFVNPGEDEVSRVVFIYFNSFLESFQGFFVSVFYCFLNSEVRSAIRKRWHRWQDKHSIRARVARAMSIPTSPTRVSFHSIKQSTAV
How it was run: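 Using thawed CRF1R-overexpressing CHO cells at 2000 per well, compound is applied for 30 min at RT in HBSS/HEPES buffer with IBMX. Cellular cAMP content is determined via HTRF, and percent activity is calculated against 1000 nM UCN2 defined as 100%.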

rat CRF2R α receptor = assay: cAMP agonism at rat CRF2R α receptor in A7R5 rat aortic smooth muscle cells (Example 8); settings: cAMP HTRF, A7R5 rat aortic smooth muscle cell line, 0% HSA
How it was run: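 Potency (EC50) is the concentration reaching half-maximal activation, with responses scaled so that 1000 nM urocortin 2 equals 100%. Intracellular cAMP was quantified by homogeneous time-resolved fluorescence at 665/620 nm, 1 h after lysis-buffer reagents. Compound stimulation lasted 30 min at room temperature on 2000 IBMX-treated (2 mM) cells per well in HEPES-buffered HBSS.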

[1] = 0% HSA, read-out: EC50 [nM], 0% HSA
[2] = 0.1% HSA, read-out: EC50 [nM], 0.1% HSA

EC50 (human CRF2α receptor; [1]) [nM]	EC50 (human CRF2α receptor; [2]) [nM]	EC50 (CRF1R receptor) [nM]	Emax (CRF1R receptor) [%]	EC50 (rat CRF2R α receptor) [nM]	SMILES
0.11	5.7	> 1000	15.9	0.69	CC[C@H](C)[C@H](N)C(=O)N[C@H](C(=O)N[C@@H](CC(C)C)C(=O)N[C@@H](CO)C(=O)N[C@@H](CC(C)C)C(=O)N[C@@H](CC(=O)O)C(=O)N[C@H](C(=O)N1CCC[C@H]1C(=O)N[C@H](C(=O)N[C@@H](CCCCN)C(=O)N[C@@H](CC(C)C)C(=O)N[C@@H](CCCCNC(=O)COCCOCCNC(=O)COCCOCCNC(=O)CC[C@H](NC(=O)CCCCCCCCCCCCCCCCC(=O)O)C(=O)O)C(=O)N[C@@H](CCC(N)=O)C(=O)N[C@H](C(=O)N[C@@H](CC(C)C)C(=O)N[C@@H](CC(C)C)C(=O)N[C@@H](CCCCN)C(=O)N[C@@H](CCC(N)=O)C(=O)N[C@@H](CCC(=O)O)C(=O)N[C@@H](CCCNC(=N)N)C(=O)N[C@@H](CCC(N)=O)C(=O)N[C@@H](CCCCN)C(=O)N[C@@H](CCCCN)C(=O)N[C@@H](CCC(N)=O)C(=O)N[C@@H](CCCNC(=N)N)C(=O)N[C@@H](CCC(=O)O)C(=O)N[C@@H](CCC(N)=O)C(=O)N[C@@H](C)C(=O)N[C@@H](CCCCN)C(=O)N[C@H](C(=O)N[C@@H](CC(N)=O)C(=O)N[C@@H](CCCCN)C(=O)N[C@@H](CCC(N)=O)C(=O)N[C@H](C(=O)N[C@@H](CC(C)C)C(=O)N[C@@H](C)C(=O)N[C@@H](CCC(N)=O)C(=O)N[C@H](C(N)=O)C(C)C)[C@@H](C)CC)[C@@H](C)O)[C@@H](C)CC)[C@@H](C)CC)C(C)C)C(C)C [compound 86] (H-IVLSLDVPIKLK([AEEA-AEEA-γGlu-C18 diacid])QILLKQERQKKQREQAKTNKQILAQV-NH2; N-terminus assumed)
0.23	16.2	> 1000	-0.2	1.49	CC[C@H](C)[C@H](N)C(=O)N[C@H](C(=O)N[C@@H](CC(C)C)C(=O)N[C@@H](CO)C(=O)N[C@@H](CC(C)C)C(=O)N[C@@H](CC(=O)O)C(=O)N[C@H](C(=O)N1CCC[C@H]1C(=O)N[C@H](C(=O)N[C@@H](CCCCN)C(=O)N[C@@H](CC(C)C)C(=O)N[C@@H](CCCCNC(=O)COCCOCCNC(=O)COCCOCCNC(=O)CC[C@H](NC(=O)CCCCCCCCCCCCCCCCC(=O)O)C(=O)O)C(=O)N[C@@H](CCC(N)=O)C(=O)N[C@H](C(=O)N[C@@H](CC(C)C)C(=O)N[C@@H](CC(C)C)C(=O)N[C@@H](CCCCN)C(=O)N[C@@H](CCC(N)=O)C(=O)N[C@@H](CCC(=O)O)C(=O)N[C@@H](CCCNC(=N)N)C(=O)N[C@@H](CCC(N)=O)C(=O)N[C@@H](CCCCN)C(=O)N[C@@H](CCCCN)C(=O)N[C@@H](CCC(N)=O)C(=O)N[C@@H](CCCNC(=N)N)C(=O)N[C@@H](CCC(=O)O)C(=O)N[C@@H](CCCCN)C(=O)N[C@@H](C)C(=O)N[C@@H](CCCCN)C(=O)N[C@H](C(=O)N[C@@H](CC(N)=O)C(=O)N[C@@H](CCCCN)C(=O)N[C@@H](CCC(N)=O)C(=O)N[C@H](C(=O)N[C@@H](CC(C)C)C(=O)N[C@@H](C)C(=O)N[C@@H](CCC(N)=O)C(=O)N[C@H](C(N)=O)C(C)C)[C@@H](C)CC)[C@@H](C)O)[C@@H](C)CC)[C@@H](C)CC)C(C)C)C(C)C [compound 87] (H-IVLSLDVPIKLK([AEEA-AEEA-γGlu-C18 diacid])QILLKQERQKKQREKAKTNKQILAQV-NH2; N-terminus assumed)
0.51	20.5	> 1000	5.06	7.52	CC[C@H](C)[C@H](N)C(=O)N[C@H](C(=O)N[C@@H](CC(C)C)C(=O)N[C@@H](CO)C(=O)N[C@@H](CC(C)C)C(=O)N[C@@H](CC(=O)O)C(=O)N[C@H](C(=O)N1CCC[C@H]1C(=O)N[C@H](C(=O)N[C@@H](CCCCN)C(=O)N[C@@H](CC(C)C)C(=O)N[C@@H](CCCCNC(=O)COCCOCCNC(=O)COCCOCCNC(=O)CC[C@H](NC(=O)CCCCCCCCCCCCCCCCC(=O)O)C(=O)O)C(=O)N[C@@H](CCCCN)C(=O)N[C@H](C(=O)N[C@@H](CC(C)C)C(=O)N[C@@H](CC(C)C)C(=O)N[C@@H](CCCCN)C(=O)N[C@@H](CCC(N)=O)C(=O)N[C@@H](CCC(=O)O)C(=O)N[C@@H](CCCNC(=N)N)C(=O)N[C@@H](CCC(N)=O)C(=O)N[C@@H](CCCCN)C(=O)N[C@@H](CCCCN)C(=O)NC(C)(C)C(=O)N[C@@H](CCCNC(=N)N)C(=O)N[C@@H](CCC(=O)O)C(=O)N[C@@H](CCC(N)=O)C(=O)N[C@@H](C)C(=O)N[C@@H](CCC(=O)O)C(=O)N[C@H](C(=O)N[C@@H](CC(N)=O)C(=O)NC(C)(C)C(=O)N[C@@H](CCC(N)=O)C(=O)N[C@H](C(=O)N[C@@H](CC(C)C)C(=O)N[C@@H](C)C(=O)N[C@@H](CCC(N)=O)C(=O)N[C@H](C(N)=O)C(C)C)[C@@H](C)CC)[C@@H](C)O)[C@@H](C)CC)[C@@H](C)CC)C(C)C)C(C)C [compound 100] (H-IVLSLDVPIKLK([AEEA-AEEA-γGlu-C18 diacid])KILLKQERQKK[Aib]REQAETN[Aib]QILAQV-NH2; N-terminus assumed)
0.11	4.28	> 1000	-0.34	1.02	CC[C@H](C)[C@H](N)C(=O)N[C@H](C(=O)N[C@@H](CC(C)C)C(=O)N[C@@H](CO)C(=O)N[C@@H](CC(C)C)C(=O)N[C@@H](CC(=O)O)C(=O)N[C@H](C(=O)N1CCC[C@H]1C(=O)N[C@H](C(=O)N[C@@H](CCCCN)C(=O)N[C@@H](CC(C)C)C(=O)N[C@@H](CCCCNC(=O)COCCOCCNC(=O)COCCOCCNC(=O)CC[C@H](NC(=O)CCCCCCCCCCCCCCCCC(=O)O)C(=O)O)C(=O)N[C@@H](CCCCN)C(=O)N[C@H](C(=O)N[C@@H](CC(C)C)C(=O)N[C@@H](CC(C)C)C(=O)N[C@@H](CCCCN)C(=O)N[C@@H](CCC(N)=O)C(=O)N[C@@H](CCC(=O)O)C(=O)N[C@@H](CCCNC(=N)N)C(=O)N[C@@H](CCC(N)=O)C(=O)N[C@@H](CCCCN)C(=O)N[C@@H](CCCCN)C(=O)NC(C)(C)C(=O)N[C@@H](CCCNC(=N)N)C(=O)N[C@@H](CCC(=O)O)C(=O)N[C@@H](CCC(N)=O)C(=O)N[C@@H](C)C(=O)N[C@@H](CCC(=O)O)C(=O)N[C@H](C(=O)N[C@@H](CC(N)=O)C(=O)N[C@@H](CCCCN)C(=O)N[C@@H](CCC(N)=O)C(=O)N[C@H](C(=O)N[C@@H](CC(C)C)C(=O)N[C@@H](CCC(=O)O)C(=O)N[C@@H](CCCNC(=N)N)C(=O)N[C@H](C(N)=O)C(C)C)[C@@H](C)CC)[C@@H](C)O)[C@@H](C)CC)[C@@H](C)CC)C(C)C)C(C)C [compound 101] (H-IVLSLDVPIKLK([AEEA-AEEA-γGlu-C18 diacid])KILLKQERQKK[Aib]REQAETNKQILERV-NH2; N-terminus assumed)
